Test results taken from patent publication US20120220581A1, “IMIDAZO[1,2-b]PYRIDAZINE DERIVATIVES AND THEIR USE AS PDE10 INHIBITORS” (Janssen-Cilag, S.A., priority 2009, published 2012).
Like-named read-outs stand apart in the source and are kept apart here.

Tests used:
[1] = system: apomorphine-induced stereotypy in rats; assay: Apomorphine-induced stereotypy in rats (APO); format: in vivo; settings: Rattus norvegicus
Procedure: Apomorphine (1.0 mg/kg, i.v.)-induced stereotypy (compulsive sniffing, licking, chewing) was scored every 5 min over the first hour after injection of apomorphine, following a 1 hour interval pre-treatment with the test compound. The score system was: (3) pronounced, (2) moderate, (1) slight, and (0) absent.

[2] = target: other members of the PDE family (Homo sapiens, UniProt O00408); assay: In vitro PDE selectivity assay (SPA), other members of the PDE family (protocols in Table A); format: biochemical; settings: hPDE2A; read-out: PDE 2A (expressed as pIC50) (converted)
other members of the PDE family, sequence (O00408 whole entry): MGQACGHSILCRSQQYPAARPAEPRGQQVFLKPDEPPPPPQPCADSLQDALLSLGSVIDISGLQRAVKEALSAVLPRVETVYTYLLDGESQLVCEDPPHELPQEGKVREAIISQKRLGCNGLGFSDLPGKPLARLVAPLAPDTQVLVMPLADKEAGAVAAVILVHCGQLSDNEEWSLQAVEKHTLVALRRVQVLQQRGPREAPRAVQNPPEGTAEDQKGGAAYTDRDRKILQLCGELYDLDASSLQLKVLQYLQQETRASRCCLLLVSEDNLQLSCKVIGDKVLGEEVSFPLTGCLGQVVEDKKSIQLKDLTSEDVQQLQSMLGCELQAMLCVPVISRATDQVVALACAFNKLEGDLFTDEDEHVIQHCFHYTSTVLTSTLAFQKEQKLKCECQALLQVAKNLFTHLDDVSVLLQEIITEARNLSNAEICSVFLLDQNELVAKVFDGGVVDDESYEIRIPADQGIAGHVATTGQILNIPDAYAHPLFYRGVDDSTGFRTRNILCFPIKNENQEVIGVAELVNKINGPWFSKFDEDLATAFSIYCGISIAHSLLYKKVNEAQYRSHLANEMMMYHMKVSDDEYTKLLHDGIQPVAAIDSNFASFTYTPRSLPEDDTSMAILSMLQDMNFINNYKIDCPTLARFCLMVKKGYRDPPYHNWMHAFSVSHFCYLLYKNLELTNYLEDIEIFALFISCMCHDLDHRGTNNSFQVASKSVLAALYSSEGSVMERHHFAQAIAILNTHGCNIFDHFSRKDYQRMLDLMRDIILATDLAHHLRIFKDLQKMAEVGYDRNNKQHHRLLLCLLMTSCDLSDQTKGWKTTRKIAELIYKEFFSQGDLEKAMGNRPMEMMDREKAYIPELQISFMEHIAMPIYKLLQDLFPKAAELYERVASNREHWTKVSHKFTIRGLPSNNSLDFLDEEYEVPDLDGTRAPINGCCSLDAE
Procedure: Rat recombinant PDE10A (rPDE10A2) was expressed in Sf9 cells using a recombinant rPDE10A baculovirus construct. Cells were harvested after 48 h of infection and the rPDE10A protein was purified by metal chelate chromatography on Ni-sepharose 6FF. Tested compounds were dissolved and diluted in 100% DMSO to a concentration 100 fold of the final concentration in the assay. Compound dilutions (0.4 μl) were added in 384 well plates to 20 μl of incubation buffer (50 mM Tris pH 7.8, 8.3 mM MgCl2, 1.7 mM EGTA). 10 μl of rPDE10A enzyme in incubation buffer was added and the reaction was started by addition of 10 μl substrate to a final concentration of 60 nM cAMP and 0.008 μCi ^3H-cAMP. The reaction was incubated for 60 minutes at room temperature. After incubation, the reaction was stopped with 20 μl of stop solution consisting of 17.8 mg/ml PDE SPA (scintillation proximity assay) beads. After sedimentation of the beads during 30 minutes the radioactivity was measured in a Perkin Elmer Topcount scintillation counter and results were expressed as cpm. For blanc values the enzyme was omitted from the reaction and replaced by incubation buffer. Control values were obtained by addition of a final concentration of 1% DMSO instead of compound. The same assay principle is applied for the measurement of the affinity of the compound for other members of the PDE family with appropriate modifications in incubation buffer, substrate concentration, incubation time and stop solution. An overview of the different protocols is presented in table A. A best fit curve is fitted by a minimum sum of squares method to the plot of % of control value substracted with blanc value versus compound concentration and the half maximal inhibitory concentration (IC50) value is derived from this curve.
The compounds of the invention are generally selective for PDE10 compared to other PDEs and there are a few that also have affinity for PDE1B1, 4D3 and 5A3.

[3] = target: T1, Rat recombinant PDE10A (rPDE10A2) (Rattus norvegicus, UniProt Q9QYJ6); assay: In vitro assay PDE10A (SPA, 3H-cAMP); format: biochemical
T1 construct: inferred from the Ni metal chelate purification; made in house; host or cells: Sf9 insect cells (baculovirus)
T1 sequence (Q9QYJ6 1-794): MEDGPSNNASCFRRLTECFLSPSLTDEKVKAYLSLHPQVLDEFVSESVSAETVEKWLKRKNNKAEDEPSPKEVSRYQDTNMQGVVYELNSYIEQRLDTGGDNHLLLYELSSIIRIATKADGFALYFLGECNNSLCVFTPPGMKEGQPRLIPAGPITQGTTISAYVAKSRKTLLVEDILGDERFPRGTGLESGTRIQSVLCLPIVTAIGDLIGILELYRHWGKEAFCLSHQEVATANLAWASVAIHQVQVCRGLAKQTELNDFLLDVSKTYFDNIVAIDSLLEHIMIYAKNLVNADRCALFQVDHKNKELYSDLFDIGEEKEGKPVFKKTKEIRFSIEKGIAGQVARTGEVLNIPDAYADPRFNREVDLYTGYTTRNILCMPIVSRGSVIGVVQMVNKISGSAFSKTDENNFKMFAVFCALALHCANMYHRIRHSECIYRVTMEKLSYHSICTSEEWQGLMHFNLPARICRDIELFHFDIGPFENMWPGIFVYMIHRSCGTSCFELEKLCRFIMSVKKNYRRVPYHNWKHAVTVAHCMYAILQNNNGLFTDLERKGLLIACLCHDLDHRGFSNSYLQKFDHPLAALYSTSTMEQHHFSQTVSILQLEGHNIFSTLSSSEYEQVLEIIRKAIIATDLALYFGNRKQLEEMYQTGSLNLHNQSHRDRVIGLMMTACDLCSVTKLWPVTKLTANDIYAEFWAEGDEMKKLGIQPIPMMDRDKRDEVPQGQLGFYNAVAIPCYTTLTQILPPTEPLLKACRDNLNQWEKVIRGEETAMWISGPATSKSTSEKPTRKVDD
Summary of the method: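 Rat PDE10A2 expressed in Sf9 cells and Ni-purified; incubated with 60 nM cAMP plus 0.008 μCi 3H-cAMP in 50 mM Tris pH 7.8, 8.3 mM MgCl2, 1.7 mM EGTA for 60 min at room temperature. Product quantified by scintillation proximity counting; final DMSO 1%.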

[4] = dose at which 50% of the tested animals show the effect, ≧: active in 30% of the animals at the indicated dose, ≦: active in 60%
[5] = Table 4 in vitro selectivity, read-out: PDE 10A2 (expressed as pIC50) (converted)
[6] = pIC50 corresponds to the −log IC50 expressed in mol/L, read-out: PDE10A2 pIC50 (converted)
[7] = po, * compound not soluble, tested orally as a suspension, ≧: active in 30% of the animals at the indicated dose, ≦: active in 60%
[8] = po, n.d.: found not active at threshold dose 2.5 mg/kg or 10 mg/kg (a), * not soluble, tested orally as a suspension
[9] = n.d.: found not active at threshold dose 2.5 mg/kg or 10 mg/kg (a), not further tested

Row | SMILES | ED50 [1, 4] [mg/kg] | IC50 [2] [µM] | IC50 [3, 5] [nM] | IC50 [3, 6] [nM] | ED50 [1, 7] [mg/kg] | ED50 [1, 8] [mg/kg] | ED50 [1, 9] [mg/kg]
1 | COC(C)(C)Cc1ccc(-c2c(C3CC3)nc3c(-c4ccncc4)ccnn23)cn1 [compound 50, 2-cyclopropyl-3-[6-(2-methoxy-2-methylpropyl)-3-pyridinyl]-8-(4-pyridinyl)-imidazo[1,2-b]pyridazine] | 0.8 | 6.92 | 14.5 | 14.5 | – | – | –
2 | CC(C)(O)Cc1ccc(-c2c(C3CC3)nc3c(N4CCOCC4)ccnn23)cn1 [compound 54, 5-[2-cyclopropyl-8-(4-morpholinyl)imidazo[1,2-b]pyridazin-3-yl]-α,α-dimethyl-2-pyridineethanol] | 1.2 | > 10 | 20.9 | 20.9 | – | – | –
3 | COCCc1ccc(-c2cnc3c(-c4ccncc4)ccnn23)cn1 [compound 57, 3-[6-(2-methoxyethyl)-3-pyridinyl]-8-(4-pyridinyl)-imidazo[1,2-b]pyridazine] | – | > 10 | 427 | 427 | – | – | –
4 | Cc1cc(N2CCOCC2)c2nc(C)c(-c3ccc(N4CCOCC4)nc3)n2n1 [compound 68, 2,6-dimethyl-8-(4-morpholinyl)-3-[6-(4-morpholinyl)-3-pyridinyl]-imidazo[1,2-b]pyridazine] | – | > 10 | 158 | 158 | ≥ 2.5 | – | –
5 | Cc1cc(-c2ccncc2)c2nc(C3CC3)c(-c3ccc(N4CCOCC4)nc3)n2n1 [compound 71, 2-cyclopropyl-6-methyl-3-[6-(4-morpholinyl)-3-pyridinyl]-8-(4-pyridinyl)-imidazo[1,2-b]pyridazine] | – | 2.29 | 83.2 | 83.2 | ≥ 2.5 | – | –
6 | COCCOc1ccc(-c2c(C3CC3)nc3c(-c4ccncc4)cc(C)nn23)cn1 [compound 72, 2-cyclopropyl-3-[6-(2-methoxyethoxy)-3-pyridinyl]-6-methyl-8-(4-pyridinyl)-imidazo[1,2-b]pyridazine] | – | 1.05 | 123 | 123 | ≥ 2.5 | – | –
7 | COCCOc1ccc(-c2c(C3CC3)nc3c(N4CCOCC4)cc(C)nn23)cn1 [compound 74, 2-cyclopropyl-3-[6-(2-methoxyethoxy)-3-pyridinyl]-6-methyl-8-(4-morpholinyl)-imidazo[1,2-b]pyridazine] | – | > 10 | 589 | 589 | – | – | –
8 | Cc1cc(N2CCOCC2)c2nc(C3CC3)c(-c3ccc(N4CCOCC4)nc3)n2n1 [compound 75, 2-cyclopropyl-6-methyl-8-(4-morpholinyl)-3-[6-(4-morpholinyl)-3-pyridinyl]-imidazo[1,2-b]pyridazine] | – | > 10 | 447 | 447 | – | – | –
9 | CCc1ccc(-c2c(C3CC3)nc3c(N4CCOCC4)cc(C)nn23)cn1 [compound 84, 2-cyclopropyl-3-(6-ethyl-3-pyridinyl)-6-methyl-8-(4-morpholinyl)-imidazo[1,2-b]pyridazine] | – | > 10 | 372 | 372 | – | – | –
10 | COCCc1ccc(-c2c(C3CC3)nc3c(N4CCOCC4)cc(C(F)(F)F)nn23)cn1 [compound 85, 2-cyclopropyl-3-[6-(2-methoxyethyl)-3-pyridinyl]-8-(4-morpholinyl)-6-(trifluoromethyl)-imidazo[1,2-b]pyridazine] | – | > 10 | 661 | 661 | – | – | –
11 | Cc1nc2c(N3CCOCC3)cc(C3CC3)nn2c1-c1ccc(N2CCOCC2)nc1 [compound 94, 6-cyclopropyl-2-methyl-8-(4-morpholinyl)-3-[6-(4-morpholinyl)-3-pyridinyl]-imidazo[1,2-b]pyridazine] | – | > 10 | 380 | 380 | – | – | –
12 | Cc1cc(N2CCOCC2)c2nc(C3CC3)c(-c3ccc(N4CCNCC4)nc3)n2n1 [compound 100, 2-cyclopropyl-6-methyl-8-(4-morpholinyl)-3-[6-(1-piperazinyl)-3-pyridinyl]-imidazo[1,2-b]pyridazine] | – | > 10 | 724 | 724 | – | – | –
13 | Cc1cc(N2CCOCC2)c2nc(C)c(-c3ccc(C4CC4)nc3)n2n1 [compound 110, 3-(6-cyclopropyl-3-pyridinyl)-2,6-dimethyl-8-(4-morpholinyl)-imidazo[1,2-b]pyridazine] | – | > 10 | 331 | 331 | – | – | –
14 | c1cc(N2CCOCC2)c2ncc(-c3ccc(C4CC4)nc3)n2n1 [compound 112, 3-(6-cyclopropyl-3-pyridinyl)-8-(4-morpholinyl)-imidazo[1,2-b]pyridazine] | – | 8.13 | 427 | 427 | – | – | –
15 | COCCn1cc(-c2c(C)nc3c(-c4ccncc4)cc(C(F)(F)F)nn23)cn1 [compound 129, 3-[1-(2-methoxyethyl)-1H-pyrazol-4-yl]-2-methyl-8-(4-pyridinyl)-6-(trifluoromethyl)-imidazo[1,2-b]pyridazine] | – | > 10 | 2630 | 2630 | – | – | –
16 | COCCn1cc(-c2c(C)nc3c(N4CCCC4)ccnn23)cn1 [compound 136, 3-[1-(2-methoxyethyl)-1H-pyrazol-4-yl]-2-methyl-8-(1-pyrrolidinyl)-imidazo[1,2-b]pyridazine] | – | > 10 | 525 | 525 | – | – | –
17 | COCCn1cc(-c2c(C(F)(F)F)nc3c(N4CCOCC4)ccnn23)cn1 [compound 139, 3-[1-(2-methoxyethyl)-1H-pyrazol-4-yl]-8-(4-morpholinyl)-2-(trifluoromethyl)-imidazo[1,2-b]pyridazine] | – | – | – | 69.2 | – | > 2.5 | –
18 | FC(F)(F)Cn1cc(-c2c(C3CC3)nc3c(-c4ccncc4)ccnn23)cn1 [compound 141, 2-cyclopropyl-8-(4-pyridinyl)-3-[1-(2,2,2-trifluoroethyl)-1H-pyrazol-4-yl]-imidazo[1,2-b]pyridazine] | – | – | – | 10 | – | > 2.5 | –
19 | c1cc(N2CCOCC2)c2ncc(-c3ccc(N4CCOCC4)nc3)n2n1 [compound 144, 8-(4-morpholinyl)-3-[6-(4-morpholinyl)-3-pyridinyl]-imidazo[1,2-b]pyridazine] | – | > 10 | 324 | 324 | – | – | –
20 | COCCc1ccc(-c2c(C(F)(F)F)nc3c(N4CCOCC4)ccnn23)cn1 [compound 145, 3-[6-(2-methoxyethyl)-3-pyridinyl]-8-(4-morpholinyl)-2-(trifluoromethyl)-imidazo[1,2-b]pyridazine] | – | – | – | 58.9 | – | – | > 2.5
21 | COCCOc1cncc(-c2c(C)nc3c(-c4ccncc4)ccnn23)c1 [compound 149, 3-[5-(2-methoxyethoxy)-3-pyridinyl]-2-methyl-8-(4-pyridinyl)-imidazo[1,2-b]pyridazine] | – | – | – | 151 | – | – | > 2.5
